Measured values as given in patent US4132790A.
Like-named read-outs stand apart in the source and are kept apart here.

Key:
tomato plant = experiment: field trial, crop injury; assay type: in vivo; conditions: scale 0 = no injury, 10 = dead plants; for Crop Injury Ratings First Reading: one week; for Crop Injury Ratings Second Reading: two weeks
Procedure: (§1) A mixture of the monoammonium salt of A16886I and the monoammonium salt of A16886II was tested under field conditions for the control of Xanthomonas vesicatoria (bacterial spot) on mature bearing tomato plant. The mixture of the two salts was dispersed in water at a concentration of 100, 200, or 400 parts per million and applied to the plants at the rate of 75 gallons per acre. Application was made with a CO2 sprayer at 50 psi. Plants were sprayed twice, on successive days; after the second spray had dried, all plants were wounded by sand blasting and then within one minute the plants were inoculated with a bacterial inoculum of Xanthomonas vesicatoria. Three days later, a third spray application of the aqueous formulation of A16886 was made. Readings were made one week and two weeks after the last spray treatment. Controls consisted of groups of plants (1) sand blasted and inoculated; (2) sand blasted only; (3) untreated; and (4) treated with streptomycin (on the same three-day spraying schedule, at a concentration of 100, 200, or 400 parts per million of aqueous solution, using a rate of 75 gallons per acre), sand blasted, and inoculated. The results were as set forth in the following table, in which crop injury is reported on a scale of 0-10, with 0 = no injury and 10 = dead plants; and control of bacterial spot is reported on a percentage basis.

Xanthomonas vesicatoria = experiment: field trial, bacterial spot control on tomato plants; assay type: in vivo; conditions: for Percent Bacterial Spot Control First Reading: one week; for Percent Bacterial Spot Control Second Reading: two weeks
Procedure: as §1

Pseudomonas solanacearum = assay type: in vivo; conditions: scale 0 to 4; for Disease Rating: light infection in controls; for rating: heavy infestation in controls
[1] = test system: Ascaris lumbricoides var. suum; experiment: anthelmintic test in infected mice, treated feed; assay type: in vivo; conditions: Example 13, 0.05 percent in diet, control 2.66
From the text: The feeds were utilized as diets for separate groups of mice, five mice per group. About twelve hours after initiation of the feeding, the mice were infected with Ascaris lumbricoides var. suum ova. Another group of five mice was fed the non-medicated feed to serve as a control but was similarly infected at the same time with Ascaris lumbricoides var. suum. All groups were fed their respective feed and maintained under normal laboratory conditions for a period of eight days, at which time all mice were taken off feed. On the ninth day, all mice were sacrified and the lungs examined to determine the presence, and if present, numbers, of lesions of Ascaris lumbricoides var. suum.
Another evaluation was conducted under the procedures reported in Example II, except that the rates were varied. The results were as follows:
In a further evaluation, the monoammonium salts of A16886I and A16886II were separately evaluated for the control of Ascaris lumbricoides var. suum. The evaluations were conducted in accordance with the procedure reported in Example 11 at a concentration in the diet of 0.05 percent.

solubility = assay type: physicochemical; conditions: monoammonium salt

| Compound | Crop Injury Ratings First Reading (tomato plant; 100 parts/million) | Crop Injury Ratings Second Reading (tomato plant; 100 parts/million) | Crop Injury Ratings First Reading (tomato plant; 200 parts/million) | Crop Injury Ratings Second Reading (tomato plant; 200 parts/million) | Crop Injury Ratings First Reading (tomato plant; 400 parts/million) | Crop Injury Ratings Second Reading (tomato plant; 400 parts/million) | Percent Bacterial Spot Control First Reading (Xanthomonas vesicatoria; 100 parts/million) [%] | Percent Bacterial Spot Control Second Reading (Xanthomonas vesicatoria; 100 parts/million) [%] | Percent Bacterial Spot Control First Reading (Xanthomonas vesicatoria; 200 parts/million) [%] | Percent Bacterial Spot Control Second Reading (Xanthomonas vesicatoria; 200 parts/million) [%] | Percent Bacterial Spot Control First Reading (Xanthomonas vesicatoria; 400 parts/million) [%] | Percent Bacterial Spot Control Second Reading (Xanthomonas vesicatoria; 400 parts/million) [%] | Disease Rating (Pseudomonas solanacearum; Example 7, 10 ppm) | Disease Rating (Pseudomonas solanacearum; Example 7, 100 ppm) | Average Number of Lung Lesions Per Group [1] | solubility in acetonitrile and other organic solvents (solubility) | solubility in lower alkanols (solubility) | solubility in water (solubility) | rating (Pseudomonas solanacearum; Example 8, 200 ppm) | rating (Pseudomonas solanacearum; Example 8, 400 ppm) |
| --- | --- | --- | --- | --- | --- | --- | --- | --- | --- | --- | --- | --- | --- | --- | --- | --- | --- | --- | --- | --- |
| [H]/N=C(/N)N[C@H]1[C@H](O)[C@@H](O)[C@H](O[C@@H]2O[C@@H](C)[C@](O)(C=O)[C@H]2O[C@@H]2O[C@@H](CO)[C@H](O)[C@@H](O)[C@@H]2NC)[C@@H](N/C(N)=N\[H])[C@@H]1O [Streptomycin] | 0 | 0 | 0 | 0 | 0 | 0 | 83 | 57 | 81 | 37 | 83 | 59 |  |  |  |  |  |  |  |  |
| NC(=O)OCC1=C(C(=O)O)N2C(=O)C(NC(=O)CCCC(N)C(=O)O)[C@H]2SC1 (some centres unmarked) [A16886II, 7-(5-amino-5-carboxyvaleramido)-3-(carbamoyloxymethyl)-3-cephem-4-carboxylic acid] |  |  |  |  |  |  |  |  |  |  |  |  | 1 | 4 | 0.20 | essentially insoluble | slightly soluble | very soluble |  |  |
| COC1(NC(=O)CCCC(N)C(=O)O)C(=O)N2C(C(=O)O)=C(COC(N)=O)CS[C@@H]21 (some centres unmarked) [A16886I, 7-(5-amino-5-carboxyvaleramido)-3-(carbamoyloxymethyl)-7-methoxy-3-cephem-4-carboxylic acid] |  |  |  |  |  |  |  |  |  |  |  |  | 2 | 4 | 0.46 | essentially insoluble | slightly soluble | very soluble | 4 | 4 |
